This note sets out measurements from patent US20120136033A1, “Small Molecule Antagonists of Phosphatidylinositol-3,4,5-Triphosphate (PIP3) and Uses Thereof” (President and Fellows of Harvard College, priority 2009, published 2012).

Broadly, the IC50 is the midpoint of a concentration-inhibition curve.

For one data set, the system named is U87MG cells. Kind of data set: sensitization of U87MG cells to killing by TRAIL, ATP assay. The class given is cell-based, human. The settings on record: 50 μM PITs or 10 μM Akt inhibitor VIII, 10 ng/ml TRAIL, 48 hr. The procedure: FIG. 10 is a bar graph depicting that PITs, as well as Akt inhibitor VIII, sensitize U87MG cells to killing by TRAIL. U87MG cells were incubated with 50 μM PIT-1, PIT-2, PIT-1i-1 or 10 μM Akt inhibitor VIII in the presence or absence of 10 ng/ml TRAIL for 48 hr, followed by cell viability analysis using ATP assay.
Based on the critical role of PIP3-dependent Akt signaling in the regulation of cell survival, the effect of PIT-1 on the cancer cell viability was tested. Cancer cells were seeded into 96-well plates (white plates for ATP assay; black plates for fluorescent assay; clear plates for MTS assay) at the density of 5-10×10^3 cells per well in 100 μl of the appropriate media. […] For the ATP assay, a luminescence-based commercial kit (CellTiter-Glo, Promega, Madison, Wis.) was used. Thirty microliters of cell lysis/ATP detection reagent was added to each well, mixed for 10 min at room temperature, and the luminescence was measured using a Wallac Victor 3 plate reader (Perkin-Elmer, Wellesley, Mass.). […] Twenty microliters of the combined MTS/PMS solution was added into each well, incubated for 4 hr at 37° C., and the absorbance at 490 nm was measured using a Wallac Victor 3 plate reader. […] Next, 5 μl of 20% (v/v) Triton X-100 solution was added to each well and incubated for 1 hr at 37° C., and the signal was measured again. […]

The next data set relates to rat aortic rings. The data set is described as follows: rat aortic ring microvessel outgrowth assay. The settings on record: 144 h; rat aortic rings in matrigel, 6 days, 3.125-100 μM; read-out: IC50, microvessel outgrowth in aortic ring sprouting. The class given is cell-based. Here is the method: For the aortic ring assay, aortas were isolated from 6-week old Sprague-Dawley rats and immediately transferred to a culture dish with serum-free medium. The fibroadipose tissue around the aortas was carefully removed and the aortas were cut into 1-mm long aortic ring fragments. After three consecutive washes in serum-free medium, the aortic rings were embedded into 70 μl Matrigel in 96-well plate and fed with 100 μl of serum-free M199 medium with or without PIT-1 at different concentrations (3.125-100 μM). The medium was replaced every 24 hr. Phase-contrast images were obtained on day 6, and the numbers of microvessel outgrowths per ring were counted.
Microvessel growth from rat aorta sections is the result of a combination of endothelial cell proliferation, migration, and tube formation, and thus provides a close approximation of in vivo angiogenesis. For this experiment the rat aortic rings were embedded in matrigel and then were treated with PIT-1 (3.125-100 μM) for 6 days, followed by counting the number of microvessel outgrowths under microscope.

Data set [1] is described as follows: stability in dimethylsulfoxide. The class given is physicochemical.

Each structure is given as a SMILES string.

For the compound `O=C(NC(=S)Nc1cc([N+](=O)[O-])cc(Cl)c1O)c1ccccc1` [PIT-1], the “sensitization of U87MG cells to killing by TRAIL” value in the data set on U87MG cells is reported as “substantially sensitized”. Moreover, the IC50 with rat aortic rings stood at 4.58 µM.
On to `O=C1NC(=S)S/C1=C\c1cc(O)c([N+](=O)[O-])cc1Cc1ccccc1` [PIT-2], for which the “stability in dimethylsulfoxide (DMSO)” value in data set [1] was “limited stability”.
